Measurements published in patent publication US12390470B2, “1-methylxanthine-based bioactive composition and method of use thereof” (Ingenious Ingredients, LP, priority 2021, dated 2025).
Where “and” joins values, the source holds several entries; their conditions need not be identical. Identical values can stand only once.

Assays:
[1] = Brain weight in young and aged rats; type: in vivo
Description: (§1) Twenty-four young (6-8 Week) and twenty-four old (14-16 Months) Swiss Albino Wistar rats were housed in an animal room at a constant temperature (22±3° C.) and humidity (30%-70%) under a 12:12 h light-dark cycle with standard laboratory diet (Purina 5L79, Rat and Mouse 18% protein; PMI Nutrition International, Brentwood, MO, USA). Distilled water was provided ad libitum. All animal experiments were reviewed and approved by the Institutional Animal Ethical Committee (IAEC) of Radiant Research Services Pvt. Ltd (Bangalore, India). All research was conducted in accordance with the guidelines of the committee for the purpose of control and supervision of experiments on animals.
(§2) After one week of acclimation, the animals were randomly divided by body weight and age into six groups (n=8 per group in each test) for oral treatment once a day, at approximately same time each day (±1 hour), for 10 consecutive days: (1) vehicle control or (2) 1-methylxanthine or (3) 1-methylxanthine plus paraxanthine. The dose administered to the rat was calculated using US Food and Drug Administration for human equivalence doses (HED), assuming a human weight of 60 kg. […] Food intake was monitored daily while water intake was ad libitum. […] Body weight was recorded weekly. […]

participant = assay: Concentration by Visual Analog Scale; type: in vivo, human; design: Concentration (Visual Analog Scale): scale not given here
Description: One participant ingested 200 mg dose of 1-methylxanthine (1-MX) orally with 8 fluid ounces of cold tap water. Concentration was measured by Visual Analog Scale (VAS) at baseline, 30, 60, 90, 120 and 180 minutes after ingestion.

gastrocnemius = assay: Gastrocnemius muscle mass after 28 days supplementation; type: in vivo, mice
Description: as §1, with “8-week-old male” for “young (6-8 Week) and twenty-four old (14-16 Months)”, “mice” for “Wistar rats”
After one week of acclimation, the animals were randomly divided by body weight into three groups (n=8 per group in each test) for oral treatment once a day, at approximately same time each day (±1 hour), for 28 consecutive days: (1) vehicle control or (2) 1-methylxanthine or (3) 1-methylxanthine plus paraxanthine. The dose administered to the mice was calculated using US Food and Drug Administration for human equivalence doses (HED), assuming a human weight of 60 kg. […] Food intake was monitored daily while water intake was ad libitum. BW was recorded weekly. […]

acetylcholine = assay: Acetylcholine level in young and old rats; type: in vivo
Description: as §1, §2

healthy adult male = assay: Subject report during work out; type: in vivo, human; settings: 200 mg prior to work out
Description: Subject was a healthy adult. Subject was administered 200 mg of 1-methylxanthine prior to work out.
During another trial subject was administered 100 mg of 1-methylxanthine together with 100 mg of paraxanthine, prior to work out.

participants = assay: Diastolic blood pressure, crossover vs caffeine; type: in vivo, human
Description: All supplements were orally ingested with 8 fluid ounces of cold tap water. Resting Heart Rate, Systolic and Diastolic Blood Pressure was measured at baseline, 30, 60, 90, 120 and 180 minutes after ingestion.

[2] = Person one, time 0, 200 mg oral
[3] = Person two, time 0, 200 mg oral

## Cn1c(=O)[nH]c2nc[nH]c2c1=O [1-methylxanthine, 1-Methyl-3H-purine-2,6-dione]
[1]; aged animals
  Brain weight: 2 ± 0.074 g
[1]; young animals
  Brain weight: 1.73 ± 0.027 g
participant; Average
  Concentration (VAS) MEAN (30-180): 61.2
participant; Person one
  Concentration (VAS) MEAN (30-180): 54.4
participant; Person one, 30 min
  Concentration (Visual Analog Scale): 60
participant; Person one, 60 min
  Concentration (Visual Analog Scale): 61
participant; Person one, 90 min
  Concentration (Visual Analog Scale): 50
participant; Person one, 120 min
  Concentration (Visual Analog Scale): 50
participant; Person one, 180 min
  Concentration (Visual Analog Scale): 51
participant; [2]
  Concentration (Visual Analog Scale): 50
participant; Person two
  Concentration (VAS) MEAN (30-180): 68.0
participant; Person two, 30 min
  Concentration (Visual Analog Scale): 65
participant; Person two, 60 min
  Concentration (Visual Analog Scale): 65
participant; Person two, 90 min
  Concentration (Visual Analog Scale): 65
participant; Person two, 120 min
  Concentration (Visual Analog Scale): 75
participant; Person two, 180 min
  Concentration (Visual Analog Scale): 70
participant; [3]
  Concentration (Visual Analog Scale): 65
gastrocnemius; 28 days
  gastrocnemius mass greater compared to control: 1.9%
gastrocnemius; 28 days after supplementation
  gastrocnemius mass: 161.1 ± 4.3 mg
acetylcholine; old rats, listed as 1-MX
  acetylcholine level: 56.33±3.42 U/ml and 56.33±3.58 U/ml
acetylcholine; young rats
  acetylcholine level: 63.35±4.12 U/ml
Healthy adult male
  subject-reported effect during work out: increased focus, concentration, mood and performance
participants; 200 mg oral
  diastolic blood pressure reduced in comparison to CA: 12%
participants; Average
  Diastolic Blood Pressure MEAN (30-180): 70.6 mm Hg
  Diastolic Blood Pressure Mean Δ from 0: −1.4 mm Hg
participants; Person one
  Diastolic Blood Pressure MEAN (30-180): 71.6 mm Hg
  Diastolic Blood Pressure Mean Δ from 0: −0.4 mm Hg
  Diastolic Blood Pressure Δ vs. CA: −5.0 mm Hg
participants; Person one, 30 min
  Diastolic Blood Pressure: 71 mm Hg
participants; Person one, 60 min
  Diastolic Blood Pressure: 68 mm Hg
participants; Person one, 90 min
  Diastolic Blood Pressure: 69 mm Hg
participants; Person one, 120 min
  Diastolic Blood Pressure: 71 mm Hg
participants; Person one, 180 min
  Diastolic Blood Pressure: 79 mm Hg
participants; [2]
  Diastolic Blood Pressure: 72 mm Hg
participants; Person two
  Diastolic Blood Pressure MEAN (30-180): 69.6 mm Hg
  Diastolic Blood Pressure Mean Δ from 0: −2.4 mm Hg
  Diastolic Blood Pressure Δ vs. CA: −12.2 mm Hg
participants; Person two, 30 min
  Diastolic Blood Pressure: 79 mm Hg
participants; Person two, 60 min
  Diastolic Blood Pressure: 62 mm Hg
participants; Person two, 90 min
  Diastolic Blood Pressure: 70 mm Hg
participants; Person two, 120 min
  Diastolic Blood Pressure: 72 mm Hg
participants; Person two, 180 min
  Diastolic Blood Pressure: 65 mm Hg
participants; [3]
  Diastolic Blood Pressure: 72 mm Hg
